Results as given in ChEMBL document CHEMBL1201862, “PubChem BioAssay data set” (2004).
Activity calls are given as the source filed them.

How the values were obtained:
[1] = Luminescence-based dose response cell-based high throughput screening assay for cytotoxic compounds using the IEC-6 intestinal epithelial cell line. [Related pubchem assays: 1858 (Summary AID.), 1825 (Counterscreen.), 1907 (Confirmation screen.)]; format: functional
[2] = molecular target: Cytochrome P450 2C19 (Homo sapiens, UniProt P33261); assay: Cytochrome panel assay with activity outcomes. Panel member name: p450-cyp2c19 Compounds with AC50 equal or less than 10 uM are considered active; format: functional; settings: read-out: AC50
Chain of Cytochrome P450 2C19 (P33261 whole entry): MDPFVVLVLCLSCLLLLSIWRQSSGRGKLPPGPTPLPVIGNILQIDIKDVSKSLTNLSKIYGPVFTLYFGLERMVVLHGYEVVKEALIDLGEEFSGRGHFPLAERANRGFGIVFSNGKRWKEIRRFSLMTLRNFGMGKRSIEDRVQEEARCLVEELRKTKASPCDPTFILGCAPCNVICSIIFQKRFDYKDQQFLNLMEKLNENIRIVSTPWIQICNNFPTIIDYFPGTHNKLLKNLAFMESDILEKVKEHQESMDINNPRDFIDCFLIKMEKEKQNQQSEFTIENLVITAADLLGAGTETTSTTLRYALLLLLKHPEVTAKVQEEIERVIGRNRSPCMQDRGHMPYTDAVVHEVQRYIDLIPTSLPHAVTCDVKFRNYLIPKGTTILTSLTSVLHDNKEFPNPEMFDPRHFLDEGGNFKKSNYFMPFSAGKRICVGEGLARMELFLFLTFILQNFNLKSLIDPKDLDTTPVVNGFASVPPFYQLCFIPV

[3] = molecular target: Sphingosine 1-phosphate receptor 2 (Homo sapiens, UniProt O95136); assay: Dose Response Cell Based Assay for Antagonists of the S1P2 Receptor. [Related pubchem assays: 856, 736 ]; format: functional
Chain of Sphingosine 1-phosphate receptor 2 (O95136 whole entry): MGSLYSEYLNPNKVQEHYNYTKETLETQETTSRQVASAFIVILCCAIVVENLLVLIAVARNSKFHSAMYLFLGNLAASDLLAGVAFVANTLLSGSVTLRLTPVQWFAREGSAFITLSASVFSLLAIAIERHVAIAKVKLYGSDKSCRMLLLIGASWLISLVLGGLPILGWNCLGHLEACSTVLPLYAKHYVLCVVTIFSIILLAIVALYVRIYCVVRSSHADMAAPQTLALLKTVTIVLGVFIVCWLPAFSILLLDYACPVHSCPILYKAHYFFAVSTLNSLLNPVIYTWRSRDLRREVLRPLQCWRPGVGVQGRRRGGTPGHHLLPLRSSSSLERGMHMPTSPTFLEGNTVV

[4] = molecular target: Cytochrome P450 2C9 (Homo sapiens, UniProt P11712)
Chain of Cytochrome P450 2C9 (P11712 whole entry): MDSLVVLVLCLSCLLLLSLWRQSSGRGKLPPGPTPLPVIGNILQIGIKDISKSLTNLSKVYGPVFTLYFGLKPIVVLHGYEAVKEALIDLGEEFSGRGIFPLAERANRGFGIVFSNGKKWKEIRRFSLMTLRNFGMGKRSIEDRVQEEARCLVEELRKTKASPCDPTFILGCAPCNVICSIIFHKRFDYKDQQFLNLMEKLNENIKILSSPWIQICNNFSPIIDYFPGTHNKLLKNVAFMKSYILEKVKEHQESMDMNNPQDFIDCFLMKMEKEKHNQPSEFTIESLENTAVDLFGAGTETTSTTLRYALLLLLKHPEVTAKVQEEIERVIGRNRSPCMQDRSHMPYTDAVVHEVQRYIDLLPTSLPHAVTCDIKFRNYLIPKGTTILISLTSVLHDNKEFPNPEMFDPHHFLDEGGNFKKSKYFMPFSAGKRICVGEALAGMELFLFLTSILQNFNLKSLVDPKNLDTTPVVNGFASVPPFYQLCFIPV

[5] = molecular target: Mitogen-activated protein kinase 10 (Homo sapiens, UniProt P53779); assay: Dose response biochemical screening assay for inhibitors of c-Jun N-Terminal Kinase 3 (JNK3). [Related pubchem assays: 746 ]
Chain of Mitogen-activated protein kinase 10 (P53779 whole entry): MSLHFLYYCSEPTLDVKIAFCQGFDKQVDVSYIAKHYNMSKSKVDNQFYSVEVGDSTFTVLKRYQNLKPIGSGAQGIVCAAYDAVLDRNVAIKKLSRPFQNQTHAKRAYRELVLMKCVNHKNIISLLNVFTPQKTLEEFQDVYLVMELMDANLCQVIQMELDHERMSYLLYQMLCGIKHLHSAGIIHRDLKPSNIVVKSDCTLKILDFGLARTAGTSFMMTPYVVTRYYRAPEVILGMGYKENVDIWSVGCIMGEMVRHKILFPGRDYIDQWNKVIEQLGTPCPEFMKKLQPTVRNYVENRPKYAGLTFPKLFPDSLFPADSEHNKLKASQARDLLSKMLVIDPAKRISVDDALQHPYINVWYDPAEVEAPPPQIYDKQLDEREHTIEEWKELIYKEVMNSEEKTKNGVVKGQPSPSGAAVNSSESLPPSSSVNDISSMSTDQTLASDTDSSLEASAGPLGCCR

[6] = molecular target: T1, Aryl hydrocarbon receptor (Homo sapiens, UniProt P35869); assay: Luminescence-based cell-based high throughput dose response assay for activators of the Aryl Hydrocarbon Receptor (AHR). [Related pubchem assays: 2796 (Primary screen (AHR activators in singlicate)), 2845 (Confirmation screen (AHR activators in triplicate)), 434939 (Counterscreen (PXR activators in triplicate)), 2804 (Summary (AHR activators))]; format: ADME
T1 sequence (P35869 whole entry): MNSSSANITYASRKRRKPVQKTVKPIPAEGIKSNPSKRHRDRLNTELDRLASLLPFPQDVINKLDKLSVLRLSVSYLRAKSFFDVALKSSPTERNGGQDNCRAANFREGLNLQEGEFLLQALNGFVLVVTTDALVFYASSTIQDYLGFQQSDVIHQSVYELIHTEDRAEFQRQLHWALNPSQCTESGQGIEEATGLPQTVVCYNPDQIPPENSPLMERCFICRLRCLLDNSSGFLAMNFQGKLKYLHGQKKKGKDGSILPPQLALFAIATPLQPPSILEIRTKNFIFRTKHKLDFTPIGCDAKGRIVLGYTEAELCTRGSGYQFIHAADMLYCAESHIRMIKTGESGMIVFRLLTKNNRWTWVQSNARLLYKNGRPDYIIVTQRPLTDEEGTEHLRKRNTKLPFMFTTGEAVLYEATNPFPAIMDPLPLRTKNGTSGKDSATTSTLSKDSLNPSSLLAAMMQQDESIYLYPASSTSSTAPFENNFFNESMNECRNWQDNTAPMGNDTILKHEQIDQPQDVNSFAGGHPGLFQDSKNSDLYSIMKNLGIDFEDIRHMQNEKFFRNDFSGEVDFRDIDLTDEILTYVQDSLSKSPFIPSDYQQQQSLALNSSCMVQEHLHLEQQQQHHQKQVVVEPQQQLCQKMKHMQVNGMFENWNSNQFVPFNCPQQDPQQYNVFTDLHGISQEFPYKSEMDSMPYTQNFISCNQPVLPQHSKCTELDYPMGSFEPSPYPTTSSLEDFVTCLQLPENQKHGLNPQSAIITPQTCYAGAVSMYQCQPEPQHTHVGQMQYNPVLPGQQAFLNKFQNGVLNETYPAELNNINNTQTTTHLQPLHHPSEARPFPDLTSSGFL

[7] = molecular target: T2, Tyrosine-protein phosphatase non-receptor type 7 (Homo sapiens, UniProt P35236); assay: HePTP tyrosine phosphatase activity blockers – biochemical, absorbance, leukemia target, primary screen (AID 521); format: functional
T2 sequence (P35236 whole entry): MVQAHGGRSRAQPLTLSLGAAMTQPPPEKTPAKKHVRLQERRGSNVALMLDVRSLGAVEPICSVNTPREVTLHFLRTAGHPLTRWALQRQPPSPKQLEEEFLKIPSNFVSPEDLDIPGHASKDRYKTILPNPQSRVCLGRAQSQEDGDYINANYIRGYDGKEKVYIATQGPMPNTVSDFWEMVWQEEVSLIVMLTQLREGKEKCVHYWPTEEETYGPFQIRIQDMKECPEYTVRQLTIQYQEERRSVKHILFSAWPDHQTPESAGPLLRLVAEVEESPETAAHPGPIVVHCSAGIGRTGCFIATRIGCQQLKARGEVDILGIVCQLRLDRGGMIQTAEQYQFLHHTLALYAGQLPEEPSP

[8] = molecular target: T3, Corticotropin-releasing factor receptor 2/Corticotropin-releasing factor-binding protein (Homo sapiens, UniProt P24387+Q13324); assay: activators of CRF receptor 2 with binding protein – uHTS hits, confirmation (AID 602473); format: functional; settings: read-out: EC50_Mean
T3 sequence (Q13324 whole entry): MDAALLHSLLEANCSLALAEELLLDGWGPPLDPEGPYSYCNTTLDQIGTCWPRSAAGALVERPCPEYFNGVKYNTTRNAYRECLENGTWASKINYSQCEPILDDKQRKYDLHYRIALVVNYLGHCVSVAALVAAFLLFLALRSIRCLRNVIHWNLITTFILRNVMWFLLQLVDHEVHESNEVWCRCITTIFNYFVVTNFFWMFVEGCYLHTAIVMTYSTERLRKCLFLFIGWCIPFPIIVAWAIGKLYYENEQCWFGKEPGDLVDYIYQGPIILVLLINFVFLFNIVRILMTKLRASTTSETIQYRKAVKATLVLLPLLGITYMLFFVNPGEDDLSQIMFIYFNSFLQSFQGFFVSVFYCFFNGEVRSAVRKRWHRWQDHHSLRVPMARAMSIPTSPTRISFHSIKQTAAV
T3 sequence (P24387 whole entry): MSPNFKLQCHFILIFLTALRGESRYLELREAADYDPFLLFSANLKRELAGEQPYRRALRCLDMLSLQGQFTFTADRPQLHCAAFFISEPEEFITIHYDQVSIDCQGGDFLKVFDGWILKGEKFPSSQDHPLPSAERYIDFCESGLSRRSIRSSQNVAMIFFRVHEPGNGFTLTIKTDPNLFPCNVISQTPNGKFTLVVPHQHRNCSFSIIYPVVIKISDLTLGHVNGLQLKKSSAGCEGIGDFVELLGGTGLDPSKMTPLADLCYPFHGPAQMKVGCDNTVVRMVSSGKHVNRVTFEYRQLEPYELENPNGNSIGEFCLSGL

[9] = fluconazole-exposed Candida albicans growth modulators – fluorescence, retest, confirmation (AID 2467); format: functional, cell-based
[10] = molecular target: T4, Estrogen receptor beta (Homo sapiens, UniProt Q92731);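 also: recombinant ER-beta bound to coactivator SRC1 peptide in presence of estradiol agonist; inhibitors block coactivator peptide binding and lower the FRET signal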
T4 sequence (Q92731 whole entry): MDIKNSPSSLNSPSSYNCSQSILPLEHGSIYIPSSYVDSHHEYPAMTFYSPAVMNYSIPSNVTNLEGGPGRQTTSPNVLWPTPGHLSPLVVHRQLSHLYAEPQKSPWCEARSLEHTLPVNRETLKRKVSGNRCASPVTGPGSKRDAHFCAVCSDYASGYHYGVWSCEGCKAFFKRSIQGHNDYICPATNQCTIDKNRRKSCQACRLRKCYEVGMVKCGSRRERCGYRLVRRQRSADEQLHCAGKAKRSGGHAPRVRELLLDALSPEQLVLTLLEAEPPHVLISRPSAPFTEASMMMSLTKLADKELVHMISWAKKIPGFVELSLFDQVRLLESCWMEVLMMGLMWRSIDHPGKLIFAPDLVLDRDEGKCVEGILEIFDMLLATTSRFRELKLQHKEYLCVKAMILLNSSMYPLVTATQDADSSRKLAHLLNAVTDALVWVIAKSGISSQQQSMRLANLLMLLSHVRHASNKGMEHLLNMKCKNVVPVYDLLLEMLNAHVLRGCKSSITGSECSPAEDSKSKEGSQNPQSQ

[11] = molecular target: T5, Heat shock factor protein 1 (Mus musculus, UniProt P38532); assay: enhancement of HSF1-driven luciferase signal – cell-based, NIH3T3, luminescence, dose retest, confirmation (AID 435004); format: functional;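 also: stress induced by proteasome inhibitor MG132 added 30 min after compound; luciferase reporter driven by HSF1 response element in NIH3T3 cells; actives raise luminescence as potentiators of the MG132 stress response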
T5 sequence (P38532 whole entry): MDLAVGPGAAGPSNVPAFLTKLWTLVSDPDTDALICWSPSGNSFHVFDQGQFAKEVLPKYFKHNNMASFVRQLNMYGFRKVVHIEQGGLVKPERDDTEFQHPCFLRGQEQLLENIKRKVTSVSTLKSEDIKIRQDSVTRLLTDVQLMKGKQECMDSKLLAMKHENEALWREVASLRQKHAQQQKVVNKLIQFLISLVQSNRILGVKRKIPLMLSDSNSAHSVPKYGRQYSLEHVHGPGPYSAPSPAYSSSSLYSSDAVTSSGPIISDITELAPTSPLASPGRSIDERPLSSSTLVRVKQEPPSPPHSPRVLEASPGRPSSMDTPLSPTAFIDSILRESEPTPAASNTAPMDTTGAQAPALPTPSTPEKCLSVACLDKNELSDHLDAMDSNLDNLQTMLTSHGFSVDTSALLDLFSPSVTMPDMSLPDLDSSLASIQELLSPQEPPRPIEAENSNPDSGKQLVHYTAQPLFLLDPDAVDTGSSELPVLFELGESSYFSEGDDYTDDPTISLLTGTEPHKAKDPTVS

[12] = molecular target: T4, Estrogen receptor beta; assay: blockers of SRC-3 recruitment to ERβ – biochemical, ELISA, streptavidin-HRP readout, orthogonal assay, confirmation (AID 1060)
[13] = NIH-3T3 fibroblast cytotoxicity, dose response, cytotoxicity control, cell-based, fluorescence, Alamar Blue, secondary assay (AID 2327); format: functional;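 also: NIH-3T3 mouse fibroblasts cultured with fluconazole at 8 µg/mL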
[14] = viability loss of HPDE-C7K cells – cell-based, fluorescence, HTS, primary screen (AID 431); format: functional; settings: Homo sapiens
[15] = HPDE-C7 pancreatic duct cell viability loss – fluorescence, HTS (AID 430); format: functional, cell-based; settings: Homo sapiens
[16] = molecular target: Induced myeloid leukemia cell differentiation protein Mcl-1 (Homo sapiens, UniProt Q07820); format: functional
Chain of Induced myeloid leukemia cell differentiation protein Mcl-1 (Q07820 whole entry): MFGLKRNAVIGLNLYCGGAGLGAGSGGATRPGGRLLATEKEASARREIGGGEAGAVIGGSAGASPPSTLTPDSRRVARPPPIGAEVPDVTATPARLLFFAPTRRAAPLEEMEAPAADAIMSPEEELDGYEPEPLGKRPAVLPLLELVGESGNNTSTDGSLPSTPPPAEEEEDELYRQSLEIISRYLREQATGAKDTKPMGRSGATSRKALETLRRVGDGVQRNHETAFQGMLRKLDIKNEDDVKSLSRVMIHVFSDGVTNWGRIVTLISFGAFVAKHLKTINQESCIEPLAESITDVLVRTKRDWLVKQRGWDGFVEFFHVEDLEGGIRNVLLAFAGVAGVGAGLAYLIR

[17] = molecular target: Ephrin type-A receptor 4 (Mus musculus, UniProt Q03137); assay: EphA4 ligand-binding antagonists – biochemical, colorimetric, mouse EphA4, primary screen (AID 689); format: functional
Chain of Ephrin type-A receptor 4 (Q03137 whole entry): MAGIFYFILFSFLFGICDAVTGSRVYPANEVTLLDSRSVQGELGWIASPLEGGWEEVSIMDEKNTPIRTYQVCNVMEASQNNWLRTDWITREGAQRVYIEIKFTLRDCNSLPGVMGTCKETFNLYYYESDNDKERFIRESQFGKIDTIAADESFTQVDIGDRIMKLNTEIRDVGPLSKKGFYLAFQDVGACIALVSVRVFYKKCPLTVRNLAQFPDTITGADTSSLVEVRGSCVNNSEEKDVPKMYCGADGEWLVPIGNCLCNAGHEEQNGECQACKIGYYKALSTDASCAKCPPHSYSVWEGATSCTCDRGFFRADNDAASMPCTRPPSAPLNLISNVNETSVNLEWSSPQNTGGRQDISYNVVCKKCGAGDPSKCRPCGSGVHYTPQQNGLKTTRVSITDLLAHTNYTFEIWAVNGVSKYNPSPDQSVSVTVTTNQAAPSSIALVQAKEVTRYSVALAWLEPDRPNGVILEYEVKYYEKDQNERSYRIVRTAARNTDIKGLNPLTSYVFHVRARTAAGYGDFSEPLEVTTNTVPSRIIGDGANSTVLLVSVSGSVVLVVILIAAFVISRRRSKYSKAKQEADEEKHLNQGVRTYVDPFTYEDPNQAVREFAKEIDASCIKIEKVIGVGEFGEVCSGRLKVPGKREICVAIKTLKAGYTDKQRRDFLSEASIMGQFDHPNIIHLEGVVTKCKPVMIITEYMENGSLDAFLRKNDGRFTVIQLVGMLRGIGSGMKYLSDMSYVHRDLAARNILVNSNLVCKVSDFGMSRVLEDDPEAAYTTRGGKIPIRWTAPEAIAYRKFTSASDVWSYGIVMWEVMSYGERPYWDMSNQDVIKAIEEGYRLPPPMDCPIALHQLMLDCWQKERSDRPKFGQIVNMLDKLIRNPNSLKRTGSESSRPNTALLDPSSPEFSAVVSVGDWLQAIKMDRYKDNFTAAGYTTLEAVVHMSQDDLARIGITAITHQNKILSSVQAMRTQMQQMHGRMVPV

Compound: CCC[C@@H](CNC)NC[C@H](Cc1ccccc1)NCCCCc1ccccc1
- IC50 [1]: 5.4 µM (active)

Compound: O=C(O)c1sc2cc(C(F)(F)F)cnc2c1-c1ccccc1
- AC50 [2]: 39.8 µM (inconclusive)
- IC50 [3]: > 30 µM (not active)
- AC50 [4]: 28.2 µM (inconclusive)

Compound: O=C1c2ccccc2C(=O)C1c1ccncc1
- IC50 [5]: 18 µM (not active)

Compound: O=C(CNC(=O)c1ccc(Br)o1)Nc1cccc(-c2cnc3ccccc3n2)c1
- IC50 [5]: 41.2 µM (not active)

Compound: O=C(/C=C\c1cccs1)c1c(O)ccc2ccc(=O)oc12
- EC50 [6]: 3.41 µM (active)

Compound: CN1CCc2c(sc3c2C(=O)NC(c2cccs2)N3)C1 (stereo not drawn)
- IC50 [7]: > 100 µM (not active)
- EC50 [8]: > 53 µM (inactive)

Compound: COc1cc(C(Nc2ccccn2)c2ccc3ccc(C)nc3c2O)cc(OC)c1O (stereo not drawn)
- EC50 [9]: > 38 µM (not active)
- IC50 [10]: 3.13 µM (active)
- EC50 [11]: 4.22 µM (active)
- IC50 [12]: > 109 µM (not active)
- EC50 [13]: 5.42 µM (inconclusive)
- EC50 [14]: 4.83 µM (active)
- EC50 [15]: 4.68 µM (active)
- IC50 [16]: 0.786 µM (active)
- IC50 [17]: 2.02 µM (active)
